Values of other authors in patent US5869538A, “Method for enhancing transport of gases to tissues” (priority 1996, dated 1999).

Conditions: for Diffusivities / Solubilities: Table 2, simulation parameter

| Compound | Diffusivities | Solubilities [mlml^-1 100 kPa^-1] | N2O solubility [ml N2 O /ml blood/atm] |
| --- | --- | --- | --- |
| O=O [O2, oxygen] | 1.24 × 10^-3 cm^2 /min | 0.0227 |  |
| [N-]=[N+]=O [N2O, reference compound] |  |  | 0.45 |
| N#N [N2, nitrogen] | 1.32 × 10^-3 cm^2 /min |  |  |
| O=C=O [CO2, carbon dioxide] | 1.05 × 10^-3 cm^2 /min | 2.35 |  |
